Data: patent publication US9538774B2, “Method of feeding livestock to improve carcass characteristics” (Value-Added Science & Technology, LLC., priority 2012, dated 2017)
“Also recorded” adds a separate entry of the source.

Tests used:
[1] = test system: swine; conditions: cited from earlier work
[2] = test system: commercial finishing pigs; assay: Example 2 feeding study: CPFA with and without ractopamine in a 40% DDGS diet; format: in vivo
Experimental: A second study was conducted to evaluate the effects of supplementation of CPFA, with and without ractopamine, in a diet containing a high level (40%) of DDGS, on growth performance, carcass characteristics, meat and fat quality in commercial finishing pigs. The experimental diets over a six-week feeding period were a control diet without CPFA and a diet containing 0.0375% CPFA for six weeks; then for the last three weeks a diet was fed that included ractopamine at 4.5 grams per ton for each of the control and CPFA diets. (See FIG. 4). CPFA was added to replace choice white grease in the control diet. As discussed below, no treatment effects on growth performance were observed nor for HCW, dressing percentage or loin muscle, ultimate pH, color or marbling.
Pig body weight (BW) on a pen basis was measured initially and at the end of weeks 3 and 6 to calculate average daily gain (ADG). On each weigh day, feed disappearance was measured to calculate average daily feed intake (ADFI) of pigs on pen basis. Pen ADG and ADFI were, in turn, used to calculate feed conversion ratio (F:G).
Pigs were all harvested on the same day and also weighed individually one day before harvest to obtain a final live BW. HCW was measured on carcasses immediately after harvest. Live BW and HCW of pigs were used to calculate dressing percentage using the following equation: dressing %=(HCW/live BW)×100. Backfat (BF) and loin depth (LD) were measured between the 3rd and 4th rib on each carcass using Fat-O-Meater (Generation II). Percentage of fat-free carcass lean was calculated by Fat-O-Meater using the values of backfat depth and loin depth.
One barrow and one gilt from each pen weighing closest to the mean BW of their pen were selected for evaluation of meat and belly fat quality. Twenty-four hours after carcasses were chilled at 4° C., pH of loin muscle (LM) was measured at the 10th rib using a pH meter. The pH meter was calibrated at the temperature of the LM with pH 4 and 7 buffers. After pH measurement, carcasses were fabricated. Loin muscle samples at the 10th rib were collected for evaluation of meat quality.
Each LM sample was separated into two equal halves, and vacuum-packaged and frozen at −20° C. until analysis. One section of LM sample was measured for Minolta color (L*: lightness; a*: redness; b*: yellowness), loin purge, chop purge, and Instron force (a measurement correlated with tenderness and chewiness). Japanese color score (1=extremely pale to 6=extremely dark; NPPC, 2000) and marbling score (1=1% intramuscular fat to 10=10% intramuscular fat; NPPC, 2000) were also determined by trained panelists.
The other section of the LM sample was used for sensory evaluation. Sensory assessment was performed according to the procedure described by the American Meat Science Association (1995). Samples of LM were thawed at 4° C. overnight and cut into chops approximately 1 inch thick. The chops were weighed before and immediately after cooking to determine cooking loss. After cooking, trained panelists evaluated chops for juiciness, tenderness, chewiness, flavor and off-flavor using a 10-point scale (1=extremely dry, tough, not chewy, none, or none, to 10=extremely juicy, tender, chewy, intense, or intense, respectively). […]
To determine the CPFA residue in carcass fat, each of 6 (3 barrows, 3 gilts) belly fat samples from the third section were randomly selected in control and experimental treatments. Samples were sent for analysis of individual CPFA using HPLC according to the method described by Wood (1986).
All data were analyzed using the MIXED procedure of SAS Inst. Inc. (Cary, N.C.). Pen was used as the experimental unit for all responses. The statistical model included the fixed effects of CPFA, ractopamine, CPFA×ractopamine interactions, and random effect of block. Live BW before harvest and sex were used as the covariates in analysis of carcass characteristics, meat and fat quality, if the effects of these covariates were significant (P<0.05). […]

[3] = 10 or 20 ppm for 25 to 41 days pre-slaughter (Carr et. al., 2005)
[4] = 10 ppm for 28 days (Stoller et. al., 2003)
[5] = 10 ppm for 35 days prior to slaughter (Aalhus, et. al., 1990)
[6] = 40% DDGS diet, CPFA 0.0375% six weeks, ractopamine 4.5 grams per ton last three weeks
[7] = loin muscle, ractopamine 4.5 grams/ton
[8] = ractopamine 4.5 grams per ton last three weeks
[9] = sensory panel, 10-point scale, each additive alone
[10] = sensory panel, ractopamine 4.5 grams/ton

For `CC(CCc1ccc(O)cc1)NCC(O)c1ccc(O)cc1` (centres unmarked) [ractopamine], the color scores [1, 3] is listed as “poorer”, the flavor scores [1, 3] is listed as “reduced” and the tenderness [1, 3] is listed as “reduced”. For the same compound, the “Instron force of loin muscle” value [1, 4] was “increased”, the chewiness score [1, 4] was “increased” and the color score [1, 4] was “reduced”. For the same compound, the tenderness score [1, 4] was “reduced”, the “hardness of fat samples taken from the loin” value [1, 5] was “reduced” and the “sheer force of loin muscle” value [1, 5] was “increased”. The “average daily feed intake (ADFI)” value [2, 6] was “affected”, the “average daily gain (ADG)” value [2, 6] was “affected; also recorded: statistically significant positive effects” and the “feed conversion ratio (F:G)” value [2, 6] was “statistically significant positive effects”. The “weight at harvest (final BW)” value [2, 6] was “affected; also recorded: statistically significant positive effects”, the “Instron force of LM samples” value ([2]; loin muscle, CPFA 0.0375% six weeks, ractopamine 4.5 grams/ton) was “did affect; also recorded: increase” and the “lightness of LM” value [2, 7] was “did affect”. For the same compound, the “redness (Minolta a*) of LM” value [2, 7] was “did affect; also recorded: reductions”, the “yellowness (Minolta b*) of LM” value [2, 7] was “did affect; also recorded: reductions” and the back fat [2, 8] was “reduction”. The “increase of the measure of carcass lean” value [2, 8] was 2%, the loin depth [2, 8] was “increase” and the carcass lean % ([2]; ractopamine 4.5 grams/ton, effect in words) was “statistically significant positive effects”. The juiciness score [2, 9] was “Neither CPFA nor ractopamine alone affected”, the off-flavor score [2, 9] was “Neither CPFA nor ractopamine alone affected” and the chewiness [2, 10] was “increased”. For the same compound, the flavor score [2, 10] was “reduction” and the tenderness [2, 10] was “reduced”.
